Data on 7 compounds can be found in PubChem BioAssay (NCI).

Where “and” joins values, the source holds several entries; their conditions need not be identical. Equal entries are not always repeated.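 Growth conditions: 96-well plates. Treatment: test compound, 48 hours, 5 concentrations. Analysis: linear interpolation between bracketing concentrations; unreached endpoints set to highest concentration. GI50 marks 50% less growth. TGI: concentration producing complete growth inhibition.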 Where only a bound is given, the exact number is not on record here.

What all share (assay): NCI tumour cell line growth inhibition, 48 h
The test system of assay [1] is CAKI-1 renal.
For assay [2], the system named is HL-60(TB) leukemia.
In assay [3] the test system is KM12 colon.
Assay [4] concerns LOX IMVI melanoma.
In assay [5] the test system is NCI-H23 lung.
Assay [6] concerns OVCAR-5 ovarian.
Assay [7] relates to RPMI-8226 leukemia.
Assay [8] concerns RXF 393 renal.
The subject of assay [9] is SF-268 CNS.
Assay [10] has as its system SF-295 CNS.

As to `CCCOC(=O)N1CCN(/[N+]([O-])=N/Oc2ccc([N+](=O)[O-])cc2[N+](=O)[O-])CC1`, the GI50 was 2.16 µM in assay [1]; 0.727 µM in assay [2]; 2.01 µM in assay [3]; 0.32 µM in assay [4]; 2.25 µM in assay [5]; 3.43 µM in assay [6]. Further, the GI50 is 0.49 µM in assay [7], 8.67 µM in assay [8], 3.19 µM in [9] and 3.76 µM in assay [10]. The TGI in [1] stood at 5.04 µM; in assay [2], 8.15 µM; in [3] it was 5.66 µM; in assay [4], 1.08 µM; in assay [5], 5.34 µM; in assay [6], 12.7 µM. The TGI was 2.41 µM in assay [7], 23.8 µM in assay [8], 11.1 µM in assay [9] and 14.9 µM in assay [10].

Take `COC(=O)c1cc2ccc(OC(C)=O)c(OC(C)=O)c2cn1`: the TGI in assay [1] was 35.9 µM; in assay [2] it was 8.21 µM and 3.8 µM; in [3], 33.6 µM; in [4] it was 3.63 µM and 2.6 µM; in assay [5] it was 36.8 µM; in assay [6] it was 34.2 µM. Also, the TGI in assay [7] amounted to 4.91 µM; in assay [8] it was 33.4 µM; in [9], 53 µM. Further, the values for the GI50 in assay [2] and in [10] were 1.63 µM and 42.1 µM, respectively.

As to `Clc1nc(Cl)c2ncn(C/C=C/COc3cccc(OC/C=C/Cn4cnc5c(Cl)nc(Cl)nc54)c3)c2n1`, the GI50 was more than 100 µM in assay [1]; 14.7 µM in assay [2]; 56.5 µM in assay [3]; 25.9 µM in [4]; more than 100 µM in assay [5]; more than 100 µM in [6]. The GI50 in [7] is 25.3 µM; in assay [8], 65 µM; in assay [9], more than 100 µM; in [10], more than 100 µM. Also, the TGI in [1] is more than 100 µM; in assay [2], 27.8 µM; in assay [3] it was more than 100 µM; in assay [4] it was more than 100 µM; in assay [5] it was more than 100 µM; in assay [6], more than 100 µM. Also, the TGI in [7], in [8], in assay [9] and in [10] was more than 100 µM each time.

As for `CC(=O)C1C(=O)C(=O)N(c2ccccc2C(C)C)C1=O` (stereo not drawn), the TGI in assay [1], in [2], in assay [3], in assay [4], in assay [5] and in assay [6] was more than 100 µM throughout. The TGI in assay [7], in assay [8], in [9] and in assay [10] was more than 100 µM in each case.

Consider `Cc1c2c(nn1C)CSCc1cc(n(C)n1)CSc1cc(c3ccccc3c1)OCCCc1c(C(=O)O)n(C)c3c-2c(Cl)ccc13`, for which the GI50 is 4.98 µM in [1]; 0.0427 µM in [2]; 3.3 µM in assay [3]; 2.87 µM in [4]; 1.78 µM in assay [5]; 5.11 µM in assay [6]. The GI50 in assay [7] was 0.0401 µM; in assay [8], 1.29 µM; in assay [9] it was 4.42 µM; in assay [10], 2.52 µM. Moreover, the TGI came to 17.4 µM in assay [1]; 0.294 µM in assay [2]; 11.9 µM in assay [3]; 12.1 µM in assay [4]; 10.6 µM in assay [5]; 17.6 µM in assay [6]. The TGI is 1.33 µM in assay [7], 3.63 µM in assay [8], 16.3 µM in [9] and 8.37 µM in assay [10].

With `COc1ccc(/C=C\c2cc(OC)c(OC)c(OC)c2)cc1OC`, the TGI in assay [1] is 40.4 µM; in assay [2], 0.332 µM and 0.0582 µM; in [4], 40.4 µM and 17.7 µM; in assay [5], 40.4 µM and > 100 µM; in assay [6], 40.4 µM and > 100 µM; in assay [7] it was 12.4 µM and 15.8 µM. Also, the TGI was more than 100 µM in assay [8]; 40.4 µM and > 100 µM in assay [9]; 40.4 µM and > 100 µM in assay [10]. Further, the GI50 in assay [2] is 0.0231 µM; in assay [3], 0.0513 µM; in assay [4] it was 0.0829 µM; in [5], 0.447 µM; in assay [6], 0.324 µM; in [7] it was 0.224 µM. Besides, the values for the GI50 in assay [9] and in assay [10] were 0.214 µM and 0.0672 µM, respectively.

Take `COC(=O)C1=C(c2cc(OC)c(OC)c(OC)c2)OC(c2ccc(OC)c(OC)c2)C1` (stereo not drawn): the TGI in [1], in assay [2], in assay [3], in assay [4], in [5] and in assay [6] was more than 100 µM in each case. For the same compound, the TGI in assay [7], in [8], in assay [9] and in assay [10] was more than 100 µM each time.
